Columns and labels:
Format in all cases: in vivo
[1] = system: Phakopsora pachyrhizi; test: Test A: preventive spray on soybean seedlings, Asian soybean rust, visual disease rating; conditions: for pest or weed control at 250 ppm: Phakopsora pachyrhizi
[2] = system: Phytophthora infestans; test: whole plant or invertebrate; conditions: for Test D disease control rating: tomato seedlings; for pest or weed control at 250 ppm: Phytophthora infestans, in Solanum lycopersicum, read-out: Test D disease control rating
[3] = system: Puccinia recondita f. sp. tritici; test: Test F: preventive spray on wheat seedlings, wheat leaf rust, visual disease rating; conditions: for pest or weed control at 250 ppm: Puccinia recondita
From the text: (§1) General protocol for preparing test solutions for Tests AG: the test compounds were first dissolved in acetone in an amount equal to 3% of the final volume and then suspended at the desired concentration (in ppm) in acetone and purified water (50/50 mix by volume) containing the surfactant PEG400 (polyhydric alcohol esters). The resulting test suspensions were then used in Tests AG. Compounds were sprayed at a concentration of 250 ppm or other indicated rate to the point of run-off on the test plants. The test solution was sprayed to the point of run-off on wheat seedlings. The following day the seedlings were inoculated with a spore suspension of Puccinia recondita f. sp. tritici; […] A dash (-) indicates no test results.

[4] = system: Erysiphe graminis f. sp. tritici; test: Test G: preventive spray on wheat seedlings, wheat powdery mildew, visual disease rating; conditions: for pest or weed control at 250 ppm: Blumeria graminis, 192 h
From the text: as §1, with “seedlings.” for “seedlings. The following day the seedlings were inoculated with a spore suspension of Puccinia recondita f. sp. tritici;”

[5] = system: Botrytis cinerea; test: Test C: preventive spray on tomato seedlings, gray mold, visual disease rating; conditions: for pest or weed control at 250 ppm: Botrytis cinerea
From the text: as §1, with “tomato” for “wheat”, “seedlings.” for “seedlings. The following day the seedlings were inoculated with a spore suspension of Puccinia recondita f. sp. tritici;”

[6] = system: Zymoseptoria tritici; test: Test E: preventive spray on wheat seedlings, wheat leaf blotch, visual disease rating; conditions: for pest or weed control at 250 ppm: Zymoseptoria tritici
From the text: as §1, with “seedlings.” for “seedlings. The following day the seedlings were inoculated with a spore suspension of Puccinia recondita f. sp. tritici;”

[7] = 250 ppm, 100 = 100% disease control, 0 = no control

SMILES | Test A disease control rating [1, 7] [%] | Test D disease control rating [2, 7] [%] | Test F disease control rating [3, 7] [%] | Test G disease control rating [4, 7] [%] | Test C disease control rating [5, 7] [%] | Test E disease control rating [6, 7] [%] | other results
Cn1ncc(OC(=O)C(C)(C)C)c(C(=O)Nc2ccc(OC(F)(F)F)cc2)c1=O [Compound 53] | 79 | 99 | 100 | 98 | 39 | 79 | 
Cc1cccc(NC(=O)c2c(O)cnn(C)c2=O)c1 [Compound 54] | 0 | 0 | 95 | 0 | 0 | 0 | 
COc1cccc(NC(=O)c2c(O)cnn(C)c2=O)c1 [Compound 55] | 0 | 0 | 89 | 0 | 0 | 0 | 
Cn1ncc(O)c(C(=O)Nc2cccc(C(F)(F)F)c2)c1=O [Compound 56] | 0 | 61 | 92 | 35 | 0 | 0 | 
Cn1ncc(O)c(C(=O)Nc2cccc(OC(F)(F)F)c2)c1=O [Compound 57] | 0 | 0 | 84 | 98 | 0 | 8 | 
COc1cnn(C)c(=O)c1C(=O)Nc1ccc(Br)cc1 [Compound 59] | 0 | 0 | 0 | 0 | 0 | 0 | 
O=C(Nc1ccc(OC(F)(F)F)cc1)c1c(O)cnn(-c2ccccc2)c1=O [Compound 60] | 0 | 88 | 88 | 57 | 0 | 92 | 
Cn1ncc(Cl)c(C(=O)Nc2cccc(OC(F)(F)F)c2)c1=O [Compound 63] |  |  |  |  |  |  | Test A disease control rating ([1]; 270 ppm): 59%; Test D disease control rating ([2]; 270 ppm): 53%; Test F disease control rating ([3]; 270 ppm): 86%; Test G disease control rating ([4]; 270 ppm): 48%; Test C disease control rating ([5]; 270 ppm): 53%; Test E disease control rating ([6]; 270 ppm): 98%
Cn1ncc(Cl)c(C(=O)Nc2cccc(C(F)(F)F)c2)c1=O [Compound 64] |  |  |  |  |  |  | Test A disease control rating ([1]; 265 ppm): 92%; Test D disease control rating ([2]; 265 ppm): 53%; Test F disease control rating ([3]; 265 ppm): 91%; Test G disease control rating ([4]; 265 ppm): 0%; Test C disease control rating ([5]; 265 ppm): 76%; Test E disease control rating ([6]; 265 ppm): 94%
O=C(Nc1ccc(OC(F)(F)F)cc1)c1c(O)cnn(-c2cccc(C(F)(F)F)c2)c1=O [Compound 71] | 12 | 0 | 0 | 0 | 0 | 0 | 
Cn1ncc(OC(=O)c2ccccc2)c(C(=O)N(C(=O)c2ccccc2)c2ccc(OC(F)(F)F)cc2)c1=O [Compound 81] | 0 | 0 | 98 | 0 | 0 | 67 | 
Cn1ncc(OS(C)(=O)=O)c(C(=O)Nc2ccc(OC(F)(F)F)cc2)c1=O [Compound 90] | 98 | 78 | 98 | 0 | 60 | 100 | 
Cn1ncc(O)c(C(=O)Nc2ccc(S(F)(F)(F)(F)F)cc2)c1=O [Compound 91, [4-[[[2,3-Dihydro-5-hydroxy-2-methyl-3-oxo-4-pyridazinyl]carbonyl]amino]phenyl]pentafluorosulfur] |  |  |  |  |  |  | pest or weed control at 250 ppm [1, 7]: 46%; pest or weed control at 250 ppm [2]: 97%; pest or weed control at 250 ppm [3, 7]: 99%; pest or weed control at 250 ppm [4, 7]: 89%; pest or weed control at 250 ppm [5, 7]: 0%; pest or weed control at 250 ppm [6, 7]: 100%
Cn1ncc(OS(C)(=O)=O)c(C(=O)Nc2ccc(C(F)(F)F)cc2)c1=O [Compound 96, 2,3-Dihydro-2-methyl-5-[(methylsulfonyl)oxy]-3-oxo-N-[4-(trifluoromethyl)phenyl]-4-pyridazinecarboxamide] |  |  |  |  |  |  | pest or weed control at 250 ppm [1, 7]: 98%; pest or weed control at 250 ppm [2]: 0%; pest or weed control at 250 ppm [3, 7]: 99%; pest or weed control at 250 ppm [4, 7]: 84%; pest or weed control at 250 ppm [5, 7]: 30%; pest or weed control at 250 ppm [6, 7]: 97%
Cn1ncc(OS(C)(=O)=O)c(C(=O)Nc2ccc(OC(F)F)cc2)c1=O [Compound 97, N-[4-(Difluoromethoxy)phenyl]-2,3-dihydro-2-methyl-5-[(methylsulfonyl)oxy]-3-oxo-4-pyridazinecarboxamide] |  |  |  |  |  |  | pest or weed control at 250 ppm [1, 7]: 95%; pest or weed control at 250 ppm [2]: 95%; pest or weed control at 250 ppm [3, 7]: 99%; pest or weed control at 250 ppm [4, 7]: 91%; pest or weed control at 250 ppm [5, 7]: 40%; pest or weed control at 250 ppm [6, 7]: 100%
Cn1ncc(OS(C)(=O)=O)c(C(=O)Nc2ccc(C#N)cc2)c1=O [Compound 98, N-(4-cyanophenyl)-2,3-dihydro-2-methyl-5-[(methylsulfonyl)oxy]-3-oxo-4-pyridazinecarboxamide] |  |  |  |  |  |  | pest or weed control at 250 ppm [1, 7]: 99%; pest or weed control at 250 ppm [2]: 9%; pest or weed control at 250 ppm [3, 7]: 97%; pest or weed control at 250 ppm [4, 7]: 0%; pest or weed control at 250 ppm [5, 7]: 98%; pest or weed control at 250 ppm [6, 7]: 95%
Cn1ncc(OS(C)(=O)=O)c(C(=O)Nc2ccc(S(F)(F)(F)(F)F)cc2)c1=O [Compound 99, [4-[[[2,3-Dihydro-2-methyl-5-[(methylsulfonyl)oxy]-3-oxo-4-pyridazinyl]carbonyl]amino]phenyl]pentafluorosulfur] |  |  |  |  |  |  | pest or weed control at 250 ppm [1, 7]: 99%; pest or weed control at 250 ppm [2]: 92%; pest or weed control at 250 ppm [3, 7]: 98%; pest or weed control at 250 ppm [4, 7]: 83%; pest or weed control at 250 ppm [5, 7]: 50%; pest or weed control at 250 ppm [6, 7]: 100%
Cn1ncc(OS(C)(=O)=O)c(C(=O)Nc2ccc(OC(F)(F)F)cc2F)c1=O [Compound 100] | 94 | 0 | 95 | 0 | 98 | 92 | 
Cn1ncc(OS(C)(=O)=O)c(C(=O)Nc2ccc(F)cc2)c1=O [Compound 101] | 78 | 9 | 99 | 0 | 0 | 78 | 
Cn1ncc(OS(C)(=O)=O)c(C(=O)Nc2ccc(C(F)(F)F)cc2F)c1=O [Compound 102] | 99 | 26 | 99 | 0 | 41 | 95 | 
Cn1ncc(OS(C)(=O)=O)c(C(=O)Nc2ccccc2-c2cc(F)c(F)c(F)c2)c1=O [Compound 103] | 84 | 0 | 90 | 73 | 0 | 96 | 
Cn1ncc(OS(C)(=O)=O)c(C(=O)Nc2ccccc2F)c1=O [Compound 104] | 87 | 0 | 89 | 65 | 0 | 94 | 
Cc1cccc(NC(=O)c2c(OS(C)(=O)=O)cnn(C)c2=O)c1 [Compound 105] | 86 | 33 | 86 | 0 | 0 | 86 | 

— US20190133128A1, “Fungicidal pyridazinones” (FMC Corporation, priority 2017, published 2019)
